Test results published in US9006225B2, “Stable pharmaceutical composition” (Asahi Kasei Pharma Corporation, priority 2008, dated 2015).

How the values were obtained:
Assay type in all cases: physicochemical
[1] = Coloring of solutions of the compound of Preparation Example 7 with additives after storage (Experimental Example 5); set-up: key to Degree of coloring, Sample solution after storage at 60° C. for 6 days / Degree of coloring, Control solution after storage at 60° C. for 6 days: −: No coloring; +: Coloring; ++: Marked coloring; conditions: for Degree of coloring, Sample solution after storage at 60° C. for 6 days: 10 mg compound of Preparation Example 7 in methanol 2 mL + 1 mL of 10 mg/mL aqueous solution of the additive; for Coloring of the solution of the compound of Preparation Example 7 by the influence of the additive: 60° C. for 6 days, methanol/water; for Degree of coloring, Control solution after storage at 60° C. for 6 days: control: 10 mg compound of Preparation Example 7 in methanol 2 mL + 1 mL purified water, no additive
Experimental: The compound obtained according to the method of Preparation Example 7 was weighed in an amount of 10 mg in a stoppered test tube, added with methanol (2 mL) for dissolution, and then further added with a 10 mg/mL aqueous solution of each of additives shown in Table 5 (1 mL) to prepare a sample solution. Separately, the compound obtained according to the method of Preparation Example 7 was weighed in an amount of 10 mg in a stoppered test tube, added with methanol (2 mL) for dissolution, and then further added with purified water (1 mL) to prepare a control solution. The prepared sample solutions and the control solution were stored in an incubator (Minijet Oven, Toyama Sangyo) at 60° C. for 6 days.

[2] = Coloring of compound solutions with glucose after storage (Experimental Example 4); set-up: key: −: No coloring; +: Coloring; ++: Marked coloring; conditions: for Degree of coloring, Sample solution after storage at 60° C. for 6 days: 10 mg compound in methanol 2 mL + 1 mL glucose aqueous solution 10 mg/mL; for Degree of coloring, Control solution after storage at 60° C. for 6 days: 10 mg compound in methanol 2 mL + 1 mL purified water (no glucose)
Experimental: The compounds of Preparation Examples 2 to 5 and 7 were each weighed in an amount of 10 mg in a stoppered test tube, added with methanol (2 mL), dissolved in the methanol, and then further added with a glucose aqueous solution (1 mL) of 10 mg/mL concentration to prepare sample solutions. Separately, the compounds of Preparation Examples 2 to 5 and 7 were each weighed in an amount of 10 mg in a stoppered test tube, added with methanol (2 mL), dissolved in the methanol, and then further added with purified water (1 mL) to prepare control solutions. The prepared sample solutions and the control solutions were stored in an incubator (Minijet Oven, Toyama Sangyo) at 60° C. for 6 days.

[3] = Solubility of crystal forms in an aqueous solvent

Degree of coloring, Sample solution after storage at 60° C. for 6 days [1] | Coloring of the solution of the compound of Preparation Example 7 by the influence of the additive [1] | Degree of coloring, Control solution after storage at 60° C. for 6 days [1] | Degree of coloring, Sample solution after storage at 60° C. for 6 days [2] | Degree of coloring, Control solution after storage at 60° C. for 6 days [2] | Solubility in an aqueous solvent compared with the type B crystals [3] | SMILES
+ | coloring | − |  |  |  | OC[C@H]1O[C@@H](O[C@H]2[C@H](O)[C@@H](O)C(O)O[C@@H]2CO)[C@H](O)[C@@H](O)[C@H]1O (some centres unmarked) [Lactose]
− | no coloring | − |  |  |  | OC[C@H]1O[C@@](CO)(O[C@H]2O[C@H](CO)[C@@H](O)[C@H](O)[C@H]2O)[C@@H](O)[C@@H]1O [Sucrose]
− | no coloring | − |  |  |  | OC[C@H]1O[C@H](O[C@H]2O[C@H](CO)[C@@H](O)[C@H](O)[C@H]2O)[C@H](O)[C@@H](O)[C@@H]1O [Trehalose]
+ | coloring | − |  |  |  | OC[C@H]1O[C@H](O[C@H]2[C@H](O)[C@@H](O)[C@H](O)O[C@@H]2CO)[C@H](O)[C@@H](O)[C@@H]1O [Maltose]
++ | coloring | − |  |  |  | O=C[C@H](O)[C@@H](O)[C@H](O)CO [Xylose]

The remaining lines, values behind:

SMILES | Degree of coloring, Sample solution after storage at 60° C. for 6 days [1] | Coloring of the solution of the compound of Preparation Example 7 by the influence of the additive [1] | Degree of coloring, Control solution after storage at 60° C. for 6 days [1] | Degree of coloring, Sample solution after storage at 60° C. for 6 days [2] | Degree of coloring, Control solution after storage at 60° C. for 6 days [2] | Solubility in an aqueous solvent compared with the type B crystals [3]
Cc1ccc(CCOc2c(N)cc(CCC(=O)O)cc2-c2ccc3ccccc3c2)cc1 [Compound of Preparation Example 2, 3-{3-amino-4-[2-(4-methylphenyl)ethyloxy]-5-(naphthalen-2-yl)phenyl}propionic acid] |  |  |  | + | − | 
O=C(CO)[C@@H](O)[C@H](O)[C@H](O)CO [Fructose] | + | coloring | − |  |  | 
OC[C@@H](O)[C@@H](O)[C@H](O)[C@H](O)CO [D-Mannitol] | − | no coloring | − |  |  | 
Cn1ncc2cc(-c3cc(CCC(=O)O)cc(N)c3OC3Cc4ccccc4C3)ccc21 [Compound of Preparation Example 7, 3-[3-amino-4-(indan-2-yloxy)-5-(1-methyl-1H-indazol-5-yl)phenyl]propionic acid] |  |  |  | ++ | − | higher
Cn1ccc2cc(-c3cc(CCC(=O)O)cc(N)c3OCC3CCCC3)ccc21 [Compound of Preparation Example 4, 3-[3-amino-4-cyclopentylmethyloxy-5-(1-methyl-1H-indol-5-yl)phenyl]propionic acid] |  |  |  | ++ | − | 
Nc1cc(CCC(=O)O)cc(-c2ccc3[nH]ccc3c2)c1OCC1CCCC1 [Compound of Preparation Example 3, 3-[3-amino-4-cyclopentylmethyloxy-5-(1H-indol-5-yl)phenyl]propionic acid] |  |  |  | ++ | − | 
Nc1cc(CCC(=O)O)cc(-c2ccc3[nH]ncc3c2)c1OC1Cc2ccccc2C1 [Compound of Preparation Example 5, 3-[3-amino-4-(indan-2-yloxy)-5-(1H-indazol-5-yl)phenyl]propionic acid] |  |  |  | + | − | 
OC[C@@H](O)[C@@H](O)CO [Erythritol] | − | no coloring | − |  |  | 
